# In PubChem BioAssay AID1996:
# Residues, ends and D or L forms follow the SMILES beside them.
# Conditions: buffer; pH 7.4; 200.0 µM
row,Structure (SMILES),solubility kinetic
1,COc1cc(OC)c(CN2CCCN(C)CC2)cc1Br,44.9 µg/mL
2,O=C(CCS(=O)(=O)c1ccccc1)Nc1ncc([N+](=O)[O-])s1,29.2 µg/mL
3,Cc1ccc2c(c1)c1c(n2CC(O)CN2CCC(C)CC2)CCCC1 (stereo not drawn),44.4 µg/mL
4,Cc1cccc(C)c1NC(=O)COC(=O)c1ccccc1O,3 µg/mL
5,O=C(NCC1CCCCC1)c1ccc(Br)o1,> 42.9 µg/mL
6,Cn1cc(CCC(=O)NCc2cccc(Cl)c2)c2ccccc21,9.9 µg/mL
7,CNC(=O)COc1ccc(S(=O)(=O)N2CCCC2)cc1,40.9 µg/mL
8,O=C(NCc1ccccn1)Nc1ccccc1F,> 36.8 µg/mL
9,CC(C)(CC(=O)O)CC(=O)Nc1ccccc1Oc1ccccc1,> 49.1 µg/mL
10,Cc1ccccc1C(=O)OC1CCN(C)CC1.Cl,> 40.5 µg/mL
11,Cc1cc(C(=O)Nc2cccc(NC(=O)c3ccco3)c2)ccc1[N+](=O)[O-],0.5 µg/mL
12,Nc1c(C(=O)OCC(=O)NCc2ccccc2)[nH]c(=O)[nH]c1=O,28.9 µg/mL
13,CN(C)c1ccc(C(=O)N2CCNC(=O)C2CC(=O)Nc2ccc(F)cc2)cc1 (stereo not drawn),55.1 µg/mL
14,CC(=O)NC(Cc1ccccc1)C(=O)NC(Cc1ccccc1)C(=O)O (stereo not drawn) (Ac-Phe-Phe-OH; configuration not given here),52.4 µg/mL
15,Cc1cc(C)c(NC(=O)C2CC(=O)N(C3CCCC3)C2)c(C)c1 (stereo not drawn),> 47.2 µg/mL
16,O=c1c(-c2ccccc2)c(O)c2ccccc2n1-c1ccccc1,> 47 µg/mL
17,CN(C(=O)c1cncc(Br)c1)C1C2CC3CC(C2)CC1C3 (stereo not drawn),48.1 µg/mL
18,Cc1ccc(Cn2c(N3CCN(C)CC3)nc3c2c(=O)[nH]c(=O)n3C)cc1,> 55.3 µg/mL
19,NC(=O)C1CCN(CCS(=O)(=O)c2ccc(Cl)cc2)CC1,> 49.6 µg/mL
20,Cc1nc2oc3c(=O)[nH]cnc3c2c2c1COC(C)(C)C2,40 µg/mL
21,COCCn1c(SCC(=O)NCCCN2CCCC2=O)nc2ccccc2c1=O,> 62.8 µg/mL

row,Structure (SMILES),solubility kinetic
1,CS(=O)(=O)N1CCCC(C(=O)Nc2ccccc2F)C1 (stereo not drawn),> 45.1 µg/mL
2,Cn1c(N)c(Sc2ccccc2[N+](=O)[O-])c(=O)n(C)c1=O,41.5 µg/mL
3,COc1ccccc1C1NC(=O)CCC1[N+](=O)[O-] (stereo not drawn),> 37.5 µg/mL
4,Cc1cc(=O)oc2cc(OCC(=O)N3CCC(C(N)=O)CC3)ccc12,> 51.7 µg/mL
5,CC(=O)c1cccc(NC(=O)c2cc(=O)[nH]c3ccccc23)c1,12.5 µg/mL
6,CC(=O)N1CCN(Cc2nc3ccc(Cl)cc3n2CCO)CC1,> 50.5 µg/mL
7,O=C1/C(=C\c2ccsc2)N2CCC1CC2,21.3 µg/mL
8,Cc1cc(C(=O)Nc2ccc(Cl)cc2)c(C)n1Cc1cccs1,2.7 µg/mL
9,OCC1(Cc2ccccc2)CCN(Cc2cccc(F)c2F)CC1,43 µg/mL
10,Cc1cccc(C)c1NC(=S)N(Cc1cccs1)C1CCCC1,0.6 µg/mL
11,CC(C)S(=O)(=O)c1cnc(-c2cccnc2)nc1N,37.7 µg/mL
12,COc1ccc(N=Cc2c(O)n(C)c(=O)n(C)c2=O)cc1,11.1 µg/mL
13,CCOc1cc(C(=O)N2CCCN(C)CC2)cc(OCC)c1OCC,> 52.6 µg/mL
14,CCOc1ccc(NC(=S)NC23CC4CC(CC(C4)C2)C3)cc1,< 0.4 µg/mL
15,O=C(O)CC[C@@H](C(=O)O)N1C(=O)c2ccccc2C1=O,> 41.6 µg/mL
16,Cc1ccc(S(=O)(=O)NCC(=O)OCC(=O)N2C(C)CCCC2C)cc1 (stereo not drawn),53.9 µg/mL
17,O=C(CCNS(=O)(=O)c1ccc(F)c(Cl)c1)NCc1ccccc1F,27.2 µg/mL
18,CCOc1cc(/C=C/c2nc3ccccc3c(=O)[nH]2)ccc1O,32.4 µg/mL
19,Cn1c(/C=C/c2ccccc2)nc2ccccc2c1=O,2.3 µg/mL
20,O=C(/C=C/c1ccccc1)OCN1C(=O)c2ccccc2C1=O,2.6 µg/mL
21,Cc1cc(NC(=O)COc2ccc(F)c(Cl)c2)no1,4.8 µg/mL

row,Structure (SMILES),solubility kinetic
1,CCOC(=O)c1ccc(N2C(=O)CC(C)(CC)CC2=O)cc1,> 45.5 µg/mL
2,Cc1cccc(NC(=S)Nc2ccccn2)c1,1.6 µg/mL
3,CCOc1nc(-c2ccccc2Cl)nc2ccccc12,1.4 µg/mL
4,CCc1ccc(N2CC(C(=O)Nc3ccc(F)cc3)CC2=O)cc1 (stereo not drawn),0.8 µg/mL
5,CCc1ccc(C(=O)Nc2nc3ccccc3[nH]2)cc1,0.5 µg/mL
6,CCc1noc(C)c1C(=O)Nc1cccc2ncccc12,> 42.2 µg/mL
7,CCCCn1c(N)c(N(CCC(C)C)C(=O)COC(=O)c2ccc([N+](=O)[O-])s2)c(=O)[nH]c1=O,25.1 µg/mL
8,CSCCC(NC(=O)c1ccco1)C(=O)NC1CCC(C)CC1 (stereo not drawn),> 50.8 µg/mL
9,O=C(c1cc(-c2ccc(Cl)cc2Cl)on1)N1CCCCCC1,4.1 µg/mL
10,CSc1cc(CS(=O)(=O)c2ccccc2)nc(-c2ccccc2)n1,< 0.4 µg/mL
11,Cc1ccc(NC(=O)C2CCN(C(=O)c3ccco3)CC2)cc1C,45.1 µg/mL
12,COc1cc(/C=C(\C#N)C(=O)NC(C)C)cc(Cl)c1O,28.4 µg/mL
13,CC(C)(C)C(=O)OCc1nc(-c2ccc(O)c(O)c2)cs1,39.5 µg/mL
14,COc1ccc(S(=O)(=O)N2CCOCC2)cc1NC(=O)COc1ccc(C)cc1,28.4 µg/mL
15,Cc1ccnc(NC(=O)c2cc(F)c(F)cc2Cl)n1,> 42.6 µg/mL
16,Cc1cc(C(=O)COC(=O)c2cnccn2)c(C)n1-c1ccc(Br)cc1,4.1 µg/mL
17,CNC(=O)c1ccccc1Nc1ccc(SC(F)F)cc1,28.6 µg/mL
18,N#Cc1ccccc1OCC(=O)OCC(=O)c1ccc[nH]1,24.9 µg/mL
19,Cc1csc2c(NC3CCN(Cc4ccccc4)CC3)ncnc12,41.5 µg/mL
20,O=C(Nc1cccc2ccccc12)C1CCCC1,12.2 µg/mL
21,CC(NC(=O)C(Cc1ccccc1)n1cccc1)c1ccccc1 (stereo not drawn),11.6 µg/mL

row,Structure (SMILES),solubility kinetic
1,CC(=O)c1ccc(NC(=S)NCCCn2ccnc2)cc1,> 45.4 µg/mL
2,O=Cc1c(-c2ccccc2)nc2ccccn12,> 33.3 µg/mL
3,O=C(O)CCNC(=S)Nc1cccc(F)c1,> 36.3 µg/mL
4,CCC(=O)c1ccc(OCC(=O)Nc2ccc(S(=O)(=O)Nc3cc(C)nc(C)n3)cc2)cc1,> 70.3 µg/mL
5,CC(=O)Nc1ccc(NC(=O)C(C)OC(=O)c2ccc(S(=O)(=O)N3CCCCCC3)cc2)cc1 (stereo not drawn),9.6 µg/mL
6,Cc1cccc(N(Cc2cc(=O)[nH]c3ccccc23)C(=O)C(C)C)c1,36.3 µg/mL
7,O=S(=O)(NCc1ccc2c(c1)OCO2)c1cccc(F)c1,> 46.4 µg/mL
8,CC(=O)c1ccc(OC(=O)CCNC(=O)c2ccccc2)cc1,27.6 µg/mL
9,Cc1c(Cl)cccc1NC(=O)CCCN1C(=O)c2cccnc2C1=O,39.5 µg/mL
10,O=C(COc1ccccc1Cl)Nc1ccc(N2CCCC2)cc1,< 0.4 µg/mL
11,Cc1[nH]c2ccccc2c1CCNCc1ccco1.Cl,> 43.6 µg/mL
12,COc1ccc2[nH]c(-c3ccccc3)cc2c1,< 0.5 µg/mL
13,CC1(C)C2CCC1(C)C(OC(=O)C[n+]1ccccc1)C2.[Cl-] (stereo not drawn),39 µg/mL
14,Cc1cccc(OCc2nc(C#N)c(N3CCCC3)o2)c1,9.6 µg/mL
15,O=C(NCCCc1ccccc1)c1ccc(F)cc1,> 38.6 µg/mL
16,CCOc1ccccc1NC(=O)CN1C(=O)COc2ccc(C)cc21,2.4 µg/mL
17,COc1cccc2c(Cl)c(CC=C(Cl)Cl)c(C)nc12,< 0.7 µg/mL
18,CC(C)C(=O)NCc1cc(-c2ccc(Cl)cc2)no1,3 µg/mL
19,CCOC(=O)N1CCN(Cc2ccc3ccccc3c2)CC1,26.9 µg/mL
20,O=C(CCCc1ccccc1)NCc1ccc2c(c1)OCO2,> 44.6 µg/mL
